Test results reported in publication PMC11727040, “Monophosphate Derivatives of Luteolin and Apigenin as Efficient Precursors with Improved Oral Bioavailability in Rats” (Antioxidants, 2024).
Values after ≈ are worked out from the molar mass of the structure shown. Read-outs that look alike come from different tables or passages of the source. Values belong to the compound of their own block, whether it stands above or below them.

Key:
[1] = target: T1, Caco-2 cell apical membrane-associated alkaline phosphatase (ALP) (Homo sapiens, UniProt P09923); test: Dephosphorylation by Caco-2 cell apical membrane-associated ALP; format: cell-based; settings: Caco-2 cells, HBSS, 37 °C, 120 min incubation, initial concentration 20 μM, read-out: elimination half-life (T1/2) of dephosphorylation
T1 construct: The Caco-2 cells (human colon adenocarcinoma, clone of Caco-2) were obtained from the Bioresource Collection and Research Center; endogenous in cells; host or cells: Caco-2 (human colon adenocarcinoma) cells, intact, 5 days in culture
T1 sequence (P09923 20-503 limits assumed): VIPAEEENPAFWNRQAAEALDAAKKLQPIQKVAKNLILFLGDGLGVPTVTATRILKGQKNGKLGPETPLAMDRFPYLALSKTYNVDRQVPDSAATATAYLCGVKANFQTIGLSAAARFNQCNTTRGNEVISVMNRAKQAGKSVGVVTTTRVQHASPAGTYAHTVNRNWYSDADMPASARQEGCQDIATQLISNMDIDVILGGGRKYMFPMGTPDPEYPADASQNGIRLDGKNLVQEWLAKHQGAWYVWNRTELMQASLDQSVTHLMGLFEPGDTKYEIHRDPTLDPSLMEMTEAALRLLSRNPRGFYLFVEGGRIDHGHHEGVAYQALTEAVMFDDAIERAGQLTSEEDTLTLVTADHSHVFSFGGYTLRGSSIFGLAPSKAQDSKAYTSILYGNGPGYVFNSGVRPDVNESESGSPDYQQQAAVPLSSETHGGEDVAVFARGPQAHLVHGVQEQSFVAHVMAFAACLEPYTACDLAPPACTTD
Procedure: The Caco-2 cells (human colon adenocarcinoma, clone of Caco-2) were obtained from the Bioresource Collection and Research Center, Hsinchu, Taiwan. Caco-2 cells were cultured according to previously established protocols. For the dephosphorylation study, the cells were seeded onto 6-well plates at a density of 3.0 × 10^5 cells per well in 2 mL of fresh medium. The medium was refreshed every 48 h. […] The plates were then incubated at 37 °C, and aliquots of 200 μL were collected at 15, 30, 60, and 120 min. […] The supernatants were analyzed by HPLC to quantify the relative content of LutPs to Lut and ApnPs to Apn. To assess the activity of human intestinal alkaline phosphatase (ALP), a positive control of fosphenytoin, a phenytoin phosphate prodrug, was used.
The HPLC system employed in this study consisted of the Waters Alliance 2695 separation module (Waters, Milford, MA, USA), a YMC-Pack ODS-AM C18 column (4.6 × 250 mm, 5 µm) with a guard cartridge (Hichrom 5C18, Berkshire, UK) and a Waters 2487 Dual-Absorbance Detector (Waters, Milford, MA, USA). Chromatographic separation was conducted at a temperature of 30 °C, utilizing a linear gradient mobile phase consisting of 0.1% phosphoric acid in H2O (solvent A) and 0.1% phosphoric acid in acetonitrile (solvent B). The elution gradient programs for quantifying each compound are detailed in Supplementary Materials Table S1. Luteolin and its derivatives were detected at a wavelength of 354 nm, while apigenin and its derivatives were detected at a wavelength of 270 nm, and fosphenytoin at 210 nm. The quantitation was conducted using the external standard method with calibration curves, and the quality was ensured by maintaining an R^2 value exceeding 0.99.

[2] = Stability in simulated gastric fluid (SGF) and simulated intestinal fluid (SIF); format: in vitro ADME; settings: SGF with pepsin and SIF with pancreatin pH 6.8, 125 mg/L, 37 °C
Procedure: For the SGF solution, 5 g of pepsin was dissolved in 1 L of deionized water with the addition of hydrochloric acid to achieve a pH of 1.8. The SIF solution consisted of 6.8 g of monopotassium phosphate and 10 g of pancreatin dissolved in 1 L of deionized water, maintaining a pH of 6.8.

[3] = Oral pharmacokinetics of Apn, Apn7G and ApnPs in SD rats; format: in vivo, Sprague Dawley (SD) rats
Procedure: (§1) (Taipei, Taiwan). and housed individually. The facilities were maintained at 25 °C, at constant humidity, and a 12 h light/dark cycle with ad libitum access to food and water and acclimated for at least 7 days prior to any experiments. Rats were fasted for 24 h before the experiments, with water freely available. For the pharmacokinetic study, rats were randomly assigned to three groups for the tests (n = 4 for Lut-relevant groups; n = 4-5 for Apn-relevant groups). […] The Apn-relevant groups received Apn aqueous suspension, Apn7G aqueous suspension, or ApnPs solution. Dosages were designed as 174.7 μmol/kg for Lut and 185.02 μmol/kg for Apn, based on the human dietary supplement dosage of 500 mg/day, translated by the body surface area index as per FDA guidelines. […] Lut and Apn were quantified in biological samples after enzymatic hydrolysis of their conjugated forms. The plasma was acidified to pH 5 by adding 10 μL of 0.5 M acetate buffer. […] The mixture was fractionated using a Sep-Pak C18 cartridge (Waters, Milford, MA, USA), eluted in order with 0.01 M oxalic acid, water/methanol/0.5 M oxalic acid (88:10:2), distilled water, and 100% methanol. The methanol fraction was adjusted to a constant volume of 500 μL and filtered with a 0.22 μm membrane to remove insoluble matter, and, subsequently, the filtrate underwent UPLC-MS/MS. The levels of Lut and Apn in the plasma were quantified using a Waters ACQUITY UPLC I-Class system (Waters, Milford, MA, USA) equipped with an XEVO TQS-microTriple-Quadrupole Tandem Mass Spectrometer (Waters, Milford, MA, USA). Chromatographic separation was achieved using a Thermo Hypersil GOLD aQ C18 (50 × 2.1 mm, 1.9 μm) column (Thermo Fisher Scientific, Waltham, MA, USA). The injection volume was 3 μL. […] The temperature of the column oven was set at 40 °C. The MRM mode in negative mode was used, and the MS parameter was set as follows. The most intense precursor-to-product transitions were selected: m/z 285→133 for luteolin, and m/z 269→107 and m/z 269→41 for apigenin and genistein, respectively. The source voltage was 1500 V. The desolvation temperature was 400 °C, and the desolvation gas flow was 800 L/h. The source temperature was 150 °C. The contents of Lut and Apn were calculated by the calibration curve and the response obtained by the peak area of them against the internal standard. Details on the multiple reaction monitoring (MRM) conditions, elution gradient programs, and UPLC method validation are provided in the Supplementary Materials Tables S2 and S3. The pharmacokinetic parameters, including maximum concentration (Cmax), time to reach maximum concentration (Tmax), and area under curve (AUC), were determined using the pharmacokinetic software WinNonlin Standard Edition v1.1 (Pharsight Corp., Mountainview, CA, USA).

[4] = design: method as in PMID 32785007; settings: rats, oral 10 mg/kg; read-out: maximum plasma concentration (Cmax); cited from earlier work
[5] = Dissolution study, USP apparatus II (paddle method); format: physicochemical; settings: for dissolution rate in bile extract solution: bile extract solution as dissolution medium; for dissolution rate after 60 min: standard dissolution medium, 0.05 M phosphate buffer pH 6.8, 37 °C, 20 μM
Procedure: To investigate the influence of bile extract (comprising bile salts and phospholipids) on the dissolution of these compounds, bile extract solutions were prepared according to the protocol described by Makioka et al. This involved dissolving 12 g of porcine bile extract and 8.4 g of sodium bicarbonate in 1 L of deionized water, which served as the dissolution medium. After the sample was placed in the dissolution medium, 1 mL aliquots of the medium were collected at 5, 10, 20, 30, 45, and 60 min of incubation, and filtered through a 0.2 μm polyethersulfone filter (Pall Corp., New York, NY, USA). Subsequently, 500 μL of each sample was acidified with 5 μL of 2 M acetic acid and stored at −20 °C until HPLC analysis.

[6] = Aqueous solubility, classical shake-flask method; settings: ultrapure water
Description: Then, the resulting supernatant (the saturated solution) was aliquoted and diluted carefully and properly to perform the quantitative analysis using HPLC.

[7] = cited from earlier work
[8] = Oral pharmacokinetics of Lut, Lut7G and LutPs in SD rats; format: in vivo, Sprague Dawley (SD) rats
Procedure: as §1

[9] = design: method as in doi:10.1016/j.jff.2017.05.056; settings: rats, 20 μmol/kg (5.725 mg/kg) via gavage; cited from earlier work
[10] = rat, in vivo, po, 185.02 umol/kg
[11] = rat, in vivo, po, 174.7 umol/kg

SMILES: O=c1cc(-c2ccc(OP(=O)(O)O)cc2)oc2cc(O)cc(O)c12 [Apn4′P, apigenin 4′-O-phosphate]
half-life at 20 μM [1]: 1.07 h | retained relative content after 240 min of incubation [2]: over 80%

SMILES: O=c1cc(-c2ccc(O)cc2)oc2cc(OP(=O)(O)O)cc(O)c12 [Apn7P, apigenin 7-O-phosphate]
half-life at 20 μM [1]: 0.73 h | retained relative content after 240 min of incubation [2]: 76%

SMILES: O=c1cc(-c2ccc(O)c(OP(=O)(O)O)c2)oc2cc(O)cc(O)c12 [Lut3′P, luteolin 3′-O-phosphate]
half-life at 20 μM [1]: 0.693 h | retained relative content after 240 min of incubation [2]: over 80%

SMILES: O=c1cc(-c2ccc(OP(=O)(O)O)c(O)c2)oc2cc(O)cc(O)c12 [Lut4′P, luteolin 4′-O-phosphate]
half-life at 20 μM [1]: 0.463 h | retained relative content after 240 min of incubation [2]: over 80%

SMILES: O=c1cc(-c2ccc(O)c(O)c2)oc2cc(OP(=O)(O)O)cc(O)c12 [Lut7P, luteolin 7-O-phosphate]
half-life at 20 μM [1]: 0.287 h | retained relative content after 240 min of incubation [2]: 73%

The next lines start with results.

Apn conjugates AUC0–t [3, 10]: 13,243.27 nM·h | Apn conjugates Tmax [3, 10]: 2.00 h | Lut (metabolite) conjugates AUC0–t [3, 10]: 8.78863 µM·h | Lut (metabolite) conjugates Tmax [3, 10]: 2.00 h | aglyconic Apn AUC0–t [3, 10]: 0.37171 µM·h | aglyconic Apn Tmax [3, 10]: 0.5 h | aglyconic Lut (metabolite) AUC0–t [3, 10]: 0.01854 µM·h | aglyconic Lut (metabolite) Tmax [3, 10]: 1.00 h | overall Apn AUC0–t [3, 10]: 13,614.98 nM·h | overall Apn Tmax [3, 10]: 2.00 h | overall Lut (metabolite) AUC0–t [3, 10]: 8.87017 µM·h | overall Lut (metabolite) Tmax [3, 10]: 2.00 h
SMILES: O=c1cc(-c2ccc(O)cc2)oc2cc(O[C@@H]3O[C@H](CO)[C@@H](O)[C@H](O)[C@H]3O)cc(O)c12 [Apn7G, apigenin 7-O-glucoside]

dissolution rate in bile extract solution [5]: 12.5% | dissolution rate after 60 min [5]: 0.24% | solubility [6]: 1.2 µg/mL (≈ 4.44 µM) | AUC(0-t) ([3]; male, Sprague Dawley, 185.02 umol/kg, rat plasma, oral 185.02 µmol/kg, 0 to 10 h, read-out: aglyconic Apn AUC0–t): 0.113 µM·h | Cmax ([3]; male, Sprague Dawley, 185.02 umol/kg, rat plasma, oral 185.02 µmol/kg, mean ± SE, read-out: aglyconic Apn Cmax): 14 ± 1.27 nM | aglyconic Apn Tmax ([3]; rat plasma, oral 185.02 µmol/kg): 0.5 h
SMILES: O=c1cc(-c2ccc(O)cc2)oc2cc(O)cc(O)c12 [Apn, 4′,5,7-trihydroxyflavone]
Cmax [4]: 80 nM | absolute oral bioavailability [7]: 0.71%

AUC0–∞ of overall Lut ([8]; rat, in vivo, po): 35.419 µM·h | aglyconic luteolin AUC0–t [8, 11]: 2.00935 µM·h | aglyconic luteolin Tmax [8, 11]: 1.00 h | luteolin conjugates AUC0–t [8, 11]: 31,336.03 nM·h | luteolin conjugates Tmax [8, 11]: 4.00 h | overall luteolin AUC0–t [8, 11]: 33,111.44 nM·h | overall luteolin Tmax [8, 11]: 2.00 h
SMILES: O=c1cc(-c2ccc(O)c(O)c2)oc2cc(O[C@@H]3O[C@H](CO)[C@@H](O)[C@H](O)[C@H]3O)cc(O)c12 [Lut7G, luteolin 7-O-glucoside]

dissolution rate in bile extract solution [5]: 10.2% | dissolution rate after 60 min [5]: 3.5% | solubility [6]: 13 µg/mL (≈ 45.4 µM) | Cmax ([8]; male, Sprague Dawley, 174.7 umol/kg, rat plasma, oral 174.7 µmol/kg, mean ± SE, read-out: aglyconic luteolin Cmax): 140 ± 194 nM | AUC(0-t) ([8]; male, Sprague Dawley, 174.7 umol/kg, rat plasma, oral 174.7 µmol/kg, zero to 8 h, read-out: aglyconic luteolin AUC0–t): 0.635 µM·h | Tmax ([8]; male, Sprague Dawley, 174.7 umol/kg, rat plasma, oral 174.7 µmol/kg, read-out: aglyconic luteolin Tmax): 1 h
SMILES: O=c1cc(-c2ccc(O)c(O)c2)oc2cc(O)cc(O)c12 [Lut, 3′,4′,5,7-tetrahydroxyflavone]
brain tissue concentration [9]: less than 0.1 nmol/g | absolute oral bioavailability [7]: 4.10%

half-life at 20 μM [1]: 1.67 h
SMILES: O=C1NC(c2ccccc2)(c2ccccc2)C(=O)N1COP(=O)(O)O [fosphenytoin]
